Experimental data published in ChEMBL document CHEMBL4002553, “Dragmacidins G and H, Bisindole Alkaloids Tethered by a Guanidino Ethylthiopyrazine Moiety, from a Lipastrotethya sp. Marine Sponge” (J Nat Prod, 2016).

Test system: HeLa
Assay: Cytotoxicity against human HeLa cells after 72 hrs by MTT assay
Assay type: functional, cell-based

| SMILES | IC50 |
| --- | --- |
| N=C(N)NCCSc1nc(-c2c[nH]c3cc(Br)ccc23)cnc1-c1c[nH]c2cc(Br)ccc12 | 4.2 µM |
| N=C(N)NCCSc1nc(-c2c[nH]c3ccccc23)cnc1-c1c[nH]c2cc(Br)ccc12 | 4.6 µM |
| O=C(c1nc(-c2c[nH]c3cc(Br)ccc23)c[nH]1)c1c[nH]c2cc(O)ccc12 [BROMOTOPSENTIN] | 1.7 µM |
| O=C(c1nc(-c2c[nH]c3ccccc23)c[nH]1)c1c[nH]c2cc(O)ccc12 [TOPSENTIN] | 4.4 µM |
